Data published in patent US4478826A, “Renin inhibitory peptides” (Merck & Co., Inc., priority 1982, dated 1984).
Square brackets hold non-standard residues; d marks the D form. Peptide text beside a SMILES is read from it. * marks the point of attachment. Sta = CC(C)C[C@H](N)[C@@H](O)CC(=O)O; Isobutyryl = CC(C)C(=O)*

Target: T1, human renin (Homo sapiens, UniProt P00797)
T1 construct: Human plasma (lyophilized) was used as the source of human substrate and human renin; from tissue; host or cells: human plasma (lyophilized)
T1 sequence (P00797 67-406): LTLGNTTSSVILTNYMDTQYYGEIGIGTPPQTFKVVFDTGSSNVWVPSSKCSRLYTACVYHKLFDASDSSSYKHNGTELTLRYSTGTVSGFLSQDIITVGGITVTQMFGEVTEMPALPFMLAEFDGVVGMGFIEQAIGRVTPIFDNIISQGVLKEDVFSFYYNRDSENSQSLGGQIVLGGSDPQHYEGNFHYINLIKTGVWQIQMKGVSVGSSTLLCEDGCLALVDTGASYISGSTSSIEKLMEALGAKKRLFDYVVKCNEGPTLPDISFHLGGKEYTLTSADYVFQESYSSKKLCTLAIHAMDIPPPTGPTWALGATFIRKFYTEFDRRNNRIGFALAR
Test: Human renin assay (radioimmunoassay of angiotensin I, human plasma)
Assay type: biochemical
Conditions: human plasma (lyophilized) as source of human substrate and human renin; read-out: I50 (M) Human renin
Excerpt: This method employs a radioimmunoassay technique to measure the amount of angiotensin I product of renin cleavage of its substrate. Human plasma (lyophilized) was used as the source of human substrate and human renin. I50 values were obtained by plotting data at several inhibitor concentrations.

- IC50: 4.2e-08 M
SMILES: CC(C)C[C@H](NC(=O)[C@H](Cc1c[nH]cn1)NC(=O)[C@H](Cc1ccccc1)NC(=O)[C@@H]1CCCN1C(=O)[C@H](Cc1c[nH]cn1)NC(=O)C(C)C)[C@@H](O)CC(=O)N[C@@H](C)C(=O)N[C@@H](Cc1ccccc1)C(N)=O [IBU--His--Pro--Phe--His--Sta--Ala--Phe--NH2] (Isobutyryl-HPFH[Sta]AF-NH2)
